According to article PMC11205865, “Unlocking the distinctive enzymatic functions of the early plant biomass deconstructive genes in a brown rot fungus by cell-free protein expression” (Applied and Environmental Microbiology, 2024):

What was measured:
[1] = test system: T1, benzoquinone reductase (BQR), Pospl1|124517; test: NADPH consumption during […],6-DMBQ reduction; format: cell-based, Rhodonia placenta; conditions: 30–570 µM 2,6-DMBQ; NADPH co-substrate; FMN cofactor; crude cell-free mixture
T1 construct: synthetic CDS in pEU-E01-MCS, wheat germ cell-free expression, crude translation mixture (sample S2), predicted 25 kDa, intracellular, no tag stated

[2] = test system: T2, heme-thiolate peroxidase (HTP), Pospl1|61079; test: ABTS oxidation with H2O2; format: cell-based, Rhodonia placenta; conditions: 50–900 µM ABTS; H2O2 as oxidant; crude cell-free mixture with hemin and nanodiscs
T2 construct: synthetic CDS in pEU-E01-MCS, wheat germ cell-free expression with nanodiscs and hemin (S1b), crude mixture, predicted 32 kDa
Method: ABTS oxidation with H2O2 on heme-thiolate peroxidase (HTP), Pospl1|61079 | Km and Vmax values for enzymes HTP, ABF, BQR, and FRD were determined

| Km [1] | Structure (SMILES) | Km [2] |
| --- | --- | --- |
| 214 µM | COC1=CC(=O)C=C(OC)C1=O [2,6-DMBQ, 2,6-dimethoxy-1,4-benzoquinone] |  |
|  | CCn1c(=NN=c2sc3cc(S(=O)(=O)O)ccc3n2CC)sc2cc(S(=O)(=O)O)ccc21 [ABTS] | 142 µM |
